Data on 28 compounds can be found in the RepoRT retention time repository (doi:10.1016/j.jchromb.2020.122105).

One data set in a line: RP, Waters ACQUITY UPLC BEH C18, 100 × 2.1 mm, 1.7 µm, 0.2 mL/min, estimated dead time 1.1 min; A: water + 0.025% formic acid + 20 mM ammonium acetate + 0.055% ammonium hydroxide, pH 7; B: methanol; gradient (min/%B) 0/5 5/5 25/100 30/100 30.1/5 35/5. Particulars: stereoisomer not certain.
For `CC(C)=CCCC(C)C1CCC2(C)C3=C(CCC12C)C1(C)CCC(O)C(C)(C)C1CC3` (stereo not drawn) [LANOSTEROL], the LC retention time was 26.4 min.
On the same count and under the same terms, the figure for `CN(CC(=O)O)C(=N)N` [CREATINE] is 1.35 min.
As to `C[N+](C)(C)CCO` [CHOLINE], the LC retention time is 1.35 min.
The same measure, in the same setting: the figure for `OCCNCCO` [DIETHANOLAMINE] is 1.35 min.
Regarding `CC(=O)NCCCCN` [N-ACETYLPUTRESCINE], the LC retention time was 1.39 min.

A further data set is described as follows: RP, Waters ACQUITY UPLC BEH C18, 100 × 2.1 mm, 1.7 µm, 0.1 mL/min, estimated dead time 2.2 min; A: water + 0.045% formic acid + 0.11% ammonium hydroxide, pH 7; B: methanol; gradient (min/%B) 0/5 5/5 25/95 25.1/100 35/100 35.1/5 45/5. The settings on record: stereoisomer not certain.
Consider `CCCCCCCCCCCCCCCC(=O)O` [PALMITATE], for which the LC retention time was 36.8 min.
For `CCCCCCC=CCCCCCCCC(=O)O` [PALMITOLEIC ACID], the LC retention time is 29.4 min.
For `NCCc1ccccc1` [PHENETHYLAMINE], the LC retention time was 20.4 min.
With `COC1=C(OC)C(=O)C(CC=C(C)CCC=C(C)CCC=C(C)CCC=C(C)CCC=C(C)CCC=C(C)CCC=C(C)CCC=C(C)CCC=C(C)CCC=C(C)C)=C(C)C1=O` [COENZYME Q10], the LC retention time is 37.8 min.
Still for that read-out and setting: the figure for `CC(C)=CCCC(C)=CCCC(C)=CCCC(C)=CCC1=C(C)C(=O)c2ccccc2C1=O` [MENAQUINONE] is 34.6 min; for `C=C1CCC(O)CC1=CC=C1CCCC2(C)C1CCC2C(C)C=CC(C)C(C)C` (stereo not drawn) [VITAMIN D2] it is 33.6 min.

A further data set is described as follows: RP, Waters ACQUITY UPLC BEH C18, 100 × 2.1 mm, 1.7 µm, 0.1 mL/min, estimated dead time 2.2 min; A: water + 0.1% formic acid, pH 3; B: methanol + 0.1% formic acid, pH 3; gradient (min/%B) 0/5 5/5 25/100 30/100 30.1/5 35/5. Particulars: stereoisomer not certain.
As for `NC(=O)c1ccc[n+](C2OC(COP(=O)([O-])O)C(O)C2O)c1` (stereo not drawn) [NICOTINAMIDE MONONUCLEOTIDE], the LC retention time is 2.69 min.
On the same count and under the same terms, as for `O=C(O)CNC(=O)c1ccccc1` [HIPPURATE], the figure is 14.1 min; as for `O=C1CCNC(=O)N1` [5,6-DIHYDROURACIL], 2.76 min; as for `C[Se]CCC(N)C(=O)O` (stereo not drawn) [SELENOMETHIONINE], 4.52 min.
Same read-out and setting: the figure for `Nc1c(O)cccc1C(=O)CC(N)C(=O)O` (stereo not drawn) [3-HYDROXYKYNURENINE] is 2.83 min.
Consider `CC(=O)NCCCCN` [N-ACETYLPUTRESCINE], for which the LC retention time was 2.71 min.

A further data set can be described thus: RP, Waters CORTECS T3, 100 × 2.1 mm, 2.7 µm, 0.3 mL/min, estimated dead time 0.73 min; A: water + 0.1% formic acid, pH 3; B: methanol + 0.1% formic acid, pH 3; gradient (min/%B) 0/5 5/5 25/100 30/100 30.1/5 35/5. Particulars: stereoisomer not certain.
As to `N[C@@H](Cc1c[nH]c2ccc(O)cc12)C(=O)O` [5-HYDROXY-L-TRYPTOPHAN], the LC retention time was 2.7 min.

The nature of a further data set: RP, Waters CORTECS T3, 100 × 2.1 mm, 2.7 µm, 0.2 mL/min, estimated dead time 1.1 min; A: water + 0.1% formic acid, pH 3; B: methanol + 0.1% formic acid, pH 3; gradient (min/%B) 0/5 5/5 25/95 25.1/100 35/100 35.1/5 45/5. Particulars: stereoisomer not certain.
Consider `CCCCCCCCCCCCCCCC(=O)O` [PALMITATE], for which the LC retention time is 33.8 min.
The same measure, in the same setting: the figure for `NC(CCCC(N)C(=O)O)C(=O)O` (stereo not drawn) [LL-2,6-DIAMINOHEPTANEDIOATE] is 2.41 min.

A further data set can be described thus: RP, Thermo Scientific Hypercarb, 150 × 2.1 mm, 5 µm, 0.1 mL/min, estimated dead time 3.3 min; A: water + 0.1% formic acid, pH 3; B: methanol + 0.1% formic acid, pH 3; gradient (min/%B) 0/5 5/5 20/100 35/100 35.1/5 45/5. The settings on record: stereoisomer not certain.
For `NC1(C(=O)O)CC1` [1-AMINOCYCLOPROPANE-1-CARBOXYLATE], the LC retention time was 4.48 min.
As for `CS(=N)(=O)CCC(N)C(=O)O` [L-METHIONINE SULFOXIMINE], the LC retention time is 4.77 min.
Consider `N[C@@H](CCSC[C@H](N)C(=O)O)C(=O)O` [L-CYSTATHIONINE], for which the LC retention time is 4.86 min.
The same measure, in the same setting: the figure for `NC(CCS)C(=O)O` (stereo not drawn) [HOMOCYSTEINE] is 14 min.
For `N[C@@H](CSCC(=O)O)C(=O)O` [S-CARBOXYMETHYL-L-CYSTEINE], the LC retention time is 14.8 min.
Regarding `NC(=O)c1ccc[n+](C2OC(COP(=O)([O-])O)C(O)C2O)c1` (stereo not drawn) [NICOTINAMIDE MONONUCLEOTIDE], the LC retention time was 26.7 min.
Still for that read-out and setting: the figure for `NC(N)=NCC(=O)O` [GUANIDINOACETATE] is 5.04 min; for `NC(CCCC(N)C(=O)O)C(=O)O` (stereo not drawn) [LL-2,6-DIAMINOHEPTANEDIOATE] it is 4.49 min; for `N[C@@H](CSSC[C@H](N)C(=O)O)C(=O)O` [L-CYSTINE] it is 4.99 min.
Turning to `NCCCCNCCCN` [SPERMIDINE], the LC retention time is 41 min.
Same read-out and setting: as for `NCCCNCCCN` [BIS(3-AMINOPROPYL)AMINE], the figure is 41 min; as for `NC(N)=NCCC[C@H](N)C(=O)O` [L-ARGININE], 4.77 min.

The next data set is described as follows: RP, Waters CORTECS T3, 100 × 2.1 mm, 2.7 µm, 0.15 mL/min, estimated dead time 1.5 min; A: water + 0.1% formic acid, pH 3; B: methanol + 0.1% formic acid, pH 3; gradient (min/%B) 0/0 1/0 6/5 30/100 35/100 35.1/0 40/0. Particulars: stereoisomer not certain.
On to `CC(=O)NCCCCN` [N-ACETYLPUTRESCINE], for which the LC retention time was 1.8 min.
